# Results from PMC8465942, “Cyano- and Ketone-Containing Selenoesters as Multi-Target Compounds against Resistant Cancers” (Cancers, 2021).
# “And” between values parts separate entries of the source, which are not always exact repeats. Equal values may be shown once. “Also recorded” adds a separate entry of the source. Read-outs that look alike come from different tables or passages of the source.
# How the values were obtained:
# [1] = target: ABCB1 (P-glycoprotein) in Colo 320 colonic adenocarcinoma cells (Homo sapiens, UniProt P08183); test: ABCB1 inhibition, rhodamine 123 accumulation by flow cytometry; conditions: for FAR (fluorescence activity ratio): rhodamine 123, FAR above 2 considered effective
# Chain of ABCB1 (P-glycoprotein) in Colo 320 colonic adenocarcinoma cells (P08183 whole entry): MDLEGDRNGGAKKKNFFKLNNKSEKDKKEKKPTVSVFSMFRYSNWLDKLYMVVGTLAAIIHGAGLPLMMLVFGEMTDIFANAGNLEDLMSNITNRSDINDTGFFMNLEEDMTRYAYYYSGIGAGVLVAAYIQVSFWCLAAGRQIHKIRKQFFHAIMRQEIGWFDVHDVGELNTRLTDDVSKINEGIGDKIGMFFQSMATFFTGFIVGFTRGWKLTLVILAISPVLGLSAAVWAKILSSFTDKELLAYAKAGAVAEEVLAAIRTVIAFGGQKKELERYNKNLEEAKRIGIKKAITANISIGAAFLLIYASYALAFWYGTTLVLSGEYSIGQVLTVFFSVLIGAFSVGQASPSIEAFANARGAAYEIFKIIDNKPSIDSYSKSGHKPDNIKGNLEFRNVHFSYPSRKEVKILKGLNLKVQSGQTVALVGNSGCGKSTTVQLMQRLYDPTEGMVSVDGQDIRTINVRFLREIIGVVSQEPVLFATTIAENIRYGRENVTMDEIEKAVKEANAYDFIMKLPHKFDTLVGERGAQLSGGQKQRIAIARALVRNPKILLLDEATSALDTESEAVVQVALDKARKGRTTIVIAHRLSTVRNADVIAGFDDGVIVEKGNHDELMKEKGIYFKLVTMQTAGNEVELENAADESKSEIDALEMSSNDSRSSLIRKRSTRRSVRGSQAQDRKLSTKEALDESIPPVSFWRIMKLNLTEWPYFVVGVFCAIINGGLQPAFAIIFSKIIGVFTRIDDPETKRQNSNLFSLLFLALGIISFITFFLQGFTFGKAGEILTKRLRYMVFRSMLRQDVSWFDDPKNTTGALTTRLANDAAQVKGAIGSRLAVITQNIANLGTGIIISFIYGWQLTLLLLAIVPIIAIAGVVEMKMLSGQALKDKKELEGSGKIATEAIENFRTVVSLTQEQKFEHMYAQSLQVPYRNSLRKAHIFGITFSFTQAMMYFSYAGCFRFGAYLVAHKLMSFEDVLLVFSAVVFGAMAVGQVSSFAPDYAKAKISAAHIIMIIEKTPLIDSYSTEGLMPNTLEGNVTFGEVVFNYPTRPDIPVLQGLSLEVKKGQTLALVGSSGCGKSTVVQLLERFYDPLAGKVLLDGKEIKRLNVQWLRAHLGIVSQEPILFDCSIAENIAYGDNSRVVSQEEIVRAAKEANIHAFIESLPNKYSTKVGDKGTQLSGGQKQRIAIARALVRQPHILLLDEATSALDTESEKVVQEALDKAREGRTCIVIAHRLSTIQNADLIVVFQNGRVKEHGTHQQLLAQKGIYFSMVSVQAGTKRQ
# Description: The inhibition of the ABCB1 multidrug efflux pump ABCB1 by the tested compounds was evaluated using flow cytometry, measuring the retention of rhodamine 123 by ABCB1 (P-glycoprotein) in Colo 320 colonic adenocarcinoma cells. Briefly, the cell number of colonic adenocarcinoma cells were adjusted to 2 × 10^6 cells/mL, re-suspended in serum-free RPMI-1640 medium in the case of colonic adenocarcinoma cells, and distributed in 0.5 mL aliquots into Eppendorf centrifuge tubes. The tested compounds were added at different concentrations (0.2 and 2 µM; from 1 and 10 mM stock solutions, respectively), and the samples were incubated for 10 min at room temperature. Tariquidar was applied as the positive control (0.2 µM final concentration), and DMSO was used as the solvent control (at 2 v/v%). Next, 10 µL (5.2 µM final concentration) of the fluorochrome rhodamine 123 (Sigma, St. Louis, MO, USA) was added to the samples and the cells were incubated for 20 min at 37 °C. After the incubation period, the cells were washed twice and re-suspended in 0.5 mL PBS for analysis. The fluorescence of the gated cell population was measured with a Partec CyFlow® flow cytometer (Partec, Münster, Germany). The percentage of the mean fluorescence intensity was calculated for the treated MDR cells as compared with the untreated cells. The results were obtained from a representative flow cytometry experiment in which at least 20,000 individual cells of the overall population were evaluated for the rhodamine 123 retained inside the cells. The fluorescence activity ratio (FAR) was calculated based on the following equation, which relates the measured fluorescence values: FAR=Colo320treated / Colo320control/Colo205treated / Colo205control
# The parameters evaluated from flow cytometry experiments were: Forward Scatter Count (FSC, provides information about cell size); Side Scatter Count (SSC, proportional to cell granularity or internal complexity); FL-1 (Mean fluorescence of the cells), and Fluorescence Activity Ratio (FAR), which was calculated by the equation given above.
# [2] = target: T1, recombinant human P-gp membranes (Homo sapiens, UniProt P08183); test: P-gp ATPase activity assay (Pgp-Glo); assay type: biochemical; conditions: 25 µM; relative to basal activity
# T1 construct: purchased Promega
# T1 sequence (P08183 whole entry): as above
# Description: P-glycoprotein ATPase activity was determined using the Pgp-Glo^TM Assay System (Promega, WI, USA). The assay was performed according to the manufacturer’s instructions. […] DMSO at 2% was applied as a solvent control. […] The reaction was stopped after adding 50 µL of ATP Detection Reagent. Then, the samples and controls were incubated at room temperature for 20 min. The emitted luciferase-generated luminescent signal was measured in a CLARIOstar Plus plate reader (BMG Labtech, UK) at 580 nm. The relative ATPase activity was calculated based on the ratio between the luminescence measured of the P-gp ATPase activity of each compound and the basal P-gp ATPase activity according to the following equation: Relative ATPase activity=Lumtreated−Lumuntreated/LumNa3VO4 − Lumuntreated
# The effect of the tested compounds was evaluated according to the instructions of the manufacturer (Table 2).
# [3] = system: MDR Colo 320 adenocarcinoma cells; test: Apoptosis induction (Annexin V-FITC / propidium iodide); assay type: cell-based, human; conditions: 2 µM; for Cell Death (%) Treated Sample-Untreated Sample / Early Apoptosis (%) Treated Sample-Untreated Sample / Late Apoptosis (%) Treated Sample-Untreated Sample: 3 h induction; for Apoptosis Quotient (%): total apoptotic events relative to reference M627 (20 µM)
# Description: The assay was carried out using an Annexin V-FITC Apoptosis Detection Kit Cat. No. PF 032 from Calbiochem (EMD Biosciences. Inc. La Jolla. CA), according to the manufacturer's instructions. […] The cell suspension was distributed into 1 mL aliquots (1 × 10^6 cells) into a 24-well microplate and incubated overnight at 37 °C, with 5% CO2. On the following day, the medium was removed and a fresh medium was added to the cells. The cells were incubated in the presence of Se-compounds for 3 h at 37 °C. […] After a 3 h induction period, the culture medium was removed, the cells were washed with PBS, and a fresh medium was added to the cells. The 24-well plates were incubated overnight at 37 °C, with 5% CO2. After the incubation, the supernatant was collected in a microfuge tube and 200 μL of 0.25 trypsin (Trypsin-Versene) was added to the wells until the cells detached from the surfaces of the wells. The cells were centrifuged at 2000× g for 2 min at room temperature, the supernatant was removed, and the cells were re-suspended in fresh serum-free medium. After this procedure, apoptosis assay was carried out according to the rapid protocol of the kit using Annexin V-FITC and propidium iodide staining. […] The data were analysed by FlowJo^TM software (BD Biosciences, San Jose, NJ, USA).
# HaCaT cell line = test: Toxicity on HaCaT cells (IC10 used as dose); assay type: cell-based; conditions: Homo sapiens
# [4] = system: HepG2 (hepatocellular carcinoma); test: Cytotoxicity on HepG2 cells; assay type: cell-based, human; conditions: ratio IC50 non-tumour cells / IC50 cancer cells
# B16 (skin melanoma) = test: Cytotoxicity on B16 cells; assay type: cell-based, murine; conditions: ratio IC50 non-tumour cells / IC50 cancer cells
Structure (SMILES),FSC (Forward Scatter Count) ([1]; 0.2 µM),SSC (Side Scatter Count) ([1]; 0.2 µM),FAR (fluorescence activity ratio) ([1]; 0.2 µM),FSC (Forward Scatter Count) ([1]; 2 µM),SSC (Side Scatter Count) ([1]; 2 µM),FAR (fluorescence activity ratio) ([1]; 2 µM),Effect on P-gp ATPase activity [2],"Total Apoptotic Events (Early + Late, %) [3]",Cell Death (%) Treated Sample-Untreated Sample [3],Early Apoptosis (%) Treated Sample-Untreated Sample [3],Late Apoptosis (%) Treated Sample-Untreated Sample [3],Apoptosis Quotient (%) [3],IC10 (HaCaT cell line; read-out: Dose IC10 (µM)),SI MRC-5/HepG2 [4],SI MRC-5/B16 (B16 (skin melanoma)),"IC10 (HaCaT cell line; concentration inhibiting 10% of the population, highest non-toxic concentration, read-out: Dose IC10)"
"CC(=O)C[Se]C(=O)c1ccc(C(C)(C)C)cc1 [K7, Se-(2-Oxopropyl) 4-(Tert-butyl)benzoselenoate]",1889,938,1.53,1920,1045,40.38 and 40.39,inhibited the ATPase activity; also recorded: inhibitors of P-gp ATPase activity,33.6%,0.10%,6.1%,27.5%,68.0%,0.24 µM,1.0,2.7,–
"CC(=O)C[Se]C(=O)c1cc(F)c(F)cc1F [K8, Se-(2-Oxopropyl) 2,4,5-Trifluorobenzoselenoate]",1804,853,3.38,1990,1131,36.09,milder inhibition of the ATPase; also recorded: inhibitors of P-gp ATPase activity,31.6%,0.85%,4.9%,26.7%,64.0%,–,0.6,1.8,0.17 µM
